From publication PMC10415494, “Ga(III) pyridinecarboxylate complexes: potential analogues of the second generation of therapeutic Ga(III) complexes?” (Journal of Biological Inorganic Chemistry, 2023)
Where two headings read alike, the source gives them in different places.

Columns and labels:
[1] = target: T1, bovine serum albumin (BSA) (Bos taurus, UniProt P02769); assay: BSA fluorescence quenching (Stern-Volmer); type: binding; conditions: 0.01 M PBS buffer pH 7.4, 25 °C, λex = 280 nm
T1 construct: purchased Sigma-Aldrich Chemicals
Protocol: Fluorescence measurements were carried out on a Varian Cary Eclipse spectrofluorometer. The quenching studies of BSA with the Ga(III) complexes were investigated to determine whether they were able to quench fluorescence of BSA. All measurements were performed at 25 °C in 0.01 M PBS buffer (pH 7.4). The fluorescence spectra were measured at an excitation wavelength of 280 nm, with a slit width of 10 nm for the excitation and emission beams, in the range of 300–450 nm and analysed according to the classical Stern–Volmer Equation: F0/F=1+KSVQ where F0 and F are the fluorescence intensities in the absence and the presence of the quencher, respectively, KSV is the Stern–Volmer constant, and [Q] is the concentration of quencher.

[2] = tested on: Candida parapsilosis (C. parapsilosis) ATCC 22019; assay: Antimicrobial activity, macrodilution method (yeast, growth by A590); type: cell-based; conditions: Lodderomyces parapsilosis
[3] = tested on: Jurkat (human leukaemic T cell lymphoma); assay: MTS antiproliferative assay; conditions: Homo sapiens, Jurkat, 72 h, read-out: Cytotoxic activity IC50 Jurkat
[4] = tested on: MDA-MB-231 (human mammary gland adenocarcinoma); assay: MTS antiproliferative assay; conditions: Homo sapiens, MDA-MB-231, 72 h, read-out: Cytotoxic activity IC50 MDA-MB-231
[5] = tested on: HeLa (human cervical adenocarcinoma); assay: MTS antiproliferative assay; conditions: Homo sapiens, HeLa, 72 h, read-out: Cytotoxic activity IC50 HeLa
[6] = tested on: A2058 (human metastatic melanoma); assay: MTS antiproliferative assay; conditions: Homo sapiens, A2058, 72 h, read-out: Cytotoxic activity IC50 A2058
[7] = tested on: PaTu 8902 (human pancreatic adenocarcinoma); assay: MTS antiproliferative assay; conditions: Homo sapiens, PaTu 8902, 72 h, read-out: Cytotoxic activity IC50 PaTu 8902
[8] = tested on: HCT116 (human colorectal carcinoma); assay: MTS antiproliferative assay; conditions: Homo sapiens, HCT-116, 72 h, read-out: Cytotoxic activity IC50 HCT116

T1 sequence (P02769 25-607): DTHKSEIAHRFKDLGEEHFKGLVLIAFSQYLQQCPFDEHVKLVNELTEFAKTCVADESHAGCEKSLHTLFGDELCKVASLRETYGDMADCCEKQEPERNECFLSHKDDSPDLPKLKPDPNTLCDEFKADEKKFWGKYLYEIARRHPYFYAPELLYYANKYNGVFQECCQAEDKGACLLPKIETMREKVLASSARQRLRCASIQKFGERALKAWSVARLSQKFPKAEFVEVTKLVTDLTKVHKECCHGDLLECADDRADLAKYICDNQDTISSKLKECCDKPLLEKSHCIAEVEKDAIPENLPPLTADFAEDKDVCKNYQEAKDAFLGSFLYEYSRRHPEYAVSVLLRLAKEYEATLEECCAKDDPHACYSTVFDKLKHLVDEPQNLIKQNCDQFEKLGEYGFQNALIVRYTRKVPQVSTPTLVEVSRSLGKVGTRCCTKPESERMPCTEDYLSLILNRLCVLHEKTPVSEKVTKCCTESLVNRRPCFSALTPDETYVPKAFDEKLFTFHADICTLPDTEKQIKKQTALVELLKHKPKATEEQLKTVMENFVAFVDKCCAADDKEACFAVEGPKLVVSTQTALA

O=C(O)c1cccc(C(=O)O)n1 [H2Dpic, dipicolinic acid]
Stern–Volmer binding constant Ksv BSA [1]: 28700 M⁻¹
IC50 ([2]; ATCC22019, read-out: IC50 C. parapsilosis): > 1000 µM
IC50 [3]: > 200 µM
IC50 [4]: > 200 µM
IC50 [5]: > 200 µM
IC50 [6]: > 200 µM
IC50 [7]: > 200 µM
IC50 [8]: > 200 µM

O=C(O)c1ccccn1 [HPic, picolinic acid]
Stern–Volmer binding constant Ksv BSA [1]: 6800 M⁻¹
IC50 ([2]; ATCC22019, Yeast, Sabouraud's growth medium, 37 °C, read-out: IC50 C. parapsilosis): > 500 µM
IC50 [3]: > 200 µM
IC50 [4]: > 200 µM
IC50 [5]: > 200 µM
IC50 [6]: > 200 µM
IC50 [7]: > 200 µM
IC50 [8]: > 200 µM
